Patent US20240424011A1, “COMBINATION THERAPY OF HYPOXIA-RESPONSIVE PRODRUG OF AN ANTICANCER DRUG AND RADIOTHERAPY, AND NOVEL HYPOXIA-RESPONSIVE PRODRUG” (UNIVERSITY OF TSUKUBA, priority 2021, published 2024)

How the values were obtained:
[1] = test system: Human pancreatic cancer cells (MIA Paca-2); test: In vivo study 1: MIA Paca-2 implant, gemcitabine or its HAP 120 mg/kg with radiotherapy; set-up: species or system Balb/c nude mice; settings: i.p. 120 mg/kg twice/week plus 2 Gy; for tumor growth inhibitory effect: vs radiation monotherapy, FIG. 12
Procedure: Human pancreatic cancer cells (MIA Paca-2) were subcutaneously implanted into Balb/c nude mice (6 or 7 mice per group), respectively, and gemcitabine or gemcitabine HAP (prepared according to the method described in Examples of JP 5676020 B2) was intraperitoneally administered (120 mg/kg, twice/week) to examine the synergistic effect of the combination therapy with radiotherapy (2 Gy, on the day after drug administration, twice/week).

[2] = test system: Human pancreatic cancer cells (MIA Paca-2); test: In vivo study 2: MIA Paca-2 implant, gemcitabine or its HAP 10 mg/kg with radiotherapy; set-up: species or system Balb/c nude mice; settings: i.p. 10 mg/kg twice/week plus 1 Gy, vs radiation monotherapy and gemcitabine plus radiation
Procedure: Human pancreatic cancer cells (MIA Paca-2) were subcutaneously implanted to Balb/c nude mice (6 mice per group), and gemcitabine or gemcitabine HAP was intraperitoneally administered (10 mg/kg, twice/week) to examine the synergistic effect of the combination therapy with radiotherapy (1 Gy, on the day after drug administration, twice/week).

[3] = test system: Human cancer cells (MIA Paca-2); test: In vivo study 2 (part 2): MIA Paca-2 implant, comparison with 2-nitroimidazole, with irradiation; set-up: species or system Balb/c nude mice; settings: i.p. 10 mg/kg twice/week plus 1 Gy; vs radiation alone, 2-nitroimidazole, and gemcitabine plus 2-nitroimidazole, FIG. 14
Procedure: Human cancer cells (MIA Paca-2) were subcutaneously implanted into Balb/c nude mice (7 mice per group), respectively, and 2-nitroimidazole (10 mg/kg, twice/week), 2-nitroimidazole and gemcitabine (10 mg/kg respectively, twice/week), and gemcitabine HAP (10 mg/kg, twice/week) were intraperitoneally administered to examine the synergistic effect of the combination therapy with irradiation (1 Gy, on the day after drug administration, twice/week).

[4] = test system: Human cholangiocarcinoma cells (HuCCT1); test: In vivo study 3: HuCCT1 implant, gemcitabine or its HAP 30 mg/kg with radiotherapy; set-up: species or system Balb/c nude mice; settings: i.p. 30 mg/kg twice/week plus 2 Gy; for tumor growth inhibitory effect: vs radiation monotherapy, FIG. 15
Procedure: Human cholangiocarcinoma cells (HuCCT1) were subcutaneously implanted into Balb/c nude mice (5 mice per group), respectively, and gemcitabine or gemcitabine HAP was intraperitoneally administered (30 mg/kg, twice/week), respectively to examine the synergistic effect of the combination therapy with radiotherapy (2 Gy, on the day after drug administration, twice/week).

[5] = test system: malignant tumor; test: therapy combined with radiotherapy (in vivo), summary in the disclosure; set-up: species or system experimental animals
From the text: Nevertheless, we investigated if there exists benefit or not in the therapy combined with radiotherapy using the PropHAP of gemcitabine. […] Even if the dose of the drug was increased, the effect stayed the same. […] Each PropHAP differs from gemcitabine in its chemical structure of the anticancer drug and the mechanism of action on tumors.

[6] = test system: Human breast cancer cells (MDA-MB-231); test: cell viability of MDA-MB-231 at normal and low oxygen concentration, 2 days; format: cell-based; settings: MDA-MB-231, normal vs low oxygen concentration (0.2%), FIG. 1
[7] = test system: PARP; test: detection of poly ADP ribosylated (PARylated) proteins by Western blotting; format: cell-based, Human; settings: hypoxic environment, FIG. 2
From the text: To determine whether the targeted PARP activity was inhibited under a hypoxic environment, proteins were recovered from the cells and poly ADP ribosylated (PARylated) proteins were detected by Western blotting.

[8] = test system: MDA-MB-231 cells; test: MDA-MB-231 subcutaneous implant in mice, drug combined with radiotherapy; format: in vivo, Balb/c nude mice; settings: oral 50/100 mg/kg plus 0.5 Gy; for tumor growth inhibitory effect: compared with radiation monotherapy, FIG. 3
Procedure: Balb/c nude mice (6 or 7 mice per group) were each subcutaneously implanted with MDA-MB-231 cells, and administered with niraparib or niraparib HAP to analyze the synergistic effect with radiotherapy.
Irradiation: 1 hour of drug administration followed by irradiation at 0.5 Gy

[9] = test system: Human malignant melanoma (A375) cells; test: cell viability of A375 at normal and low oxygen concentration, 2 days; format: cell-based; settings: A375, normal vs lower (0.2%) oxygen, FIG. 5, 6, 8
[10] = test system: Human breast cancer cells (MDA-MB-231); test: cell viability of MDA-MB-231 at normal and low oxygen concentration, 4 days; format: cell-based; settings: MDA-MB-231, normal vs lower (0.2%) oxygen, FIG. 7
[11] = test system: Human breast cancer cells (MCF-7); test: cell viability of MCF-7 at normal and low oxygen concentration, 2 days; format: cell-based; settings: MCF-7, normal vs lower (0.2%) oxygen, FIG. 9, 11
From the text: The results are illustrated in FIG. 11.

[12] = test system: Human pancreatic cancer cells (MIA Paca-2); test: MIA Paca-2 subcutaneous implant in mice, palbociclib or its HAP with radiotherapy; format: in vivo, Balb/c nude mice; settings: oral 100 mg/kg twice/week plus 2 Gy; vs radiation alone and vs palbociclib plus radiation, FIG. 10
Procedure: Human pancreatic cancer cells (MIA Paca-2) were subcutaneously implanted into Balb/c nude mice (6 mice per group), and palbociclib or palbociclib HAP was orally administered (100 mg/kg, twice/week) to examine the synergistic effect with radiotherapy (2 Gy on the day after drug administration, twice/week).

[13] = test system: human breast cancer cells (MCF7); test: MCF7 subcutaneous implant in mice, ribociclib or its HAP with radiotherapy; format: in vivo, Balb/c nude mice; settings: oral 75 mg/kg twice/week plus 1 Gy; vs radiation alone or ribociclib plus radiation, FIG. 11
Procedure: A 17β-estradiol sustained-release pellet (manufactured by Innovative Research of America) and human breast cancer cells (MCF7) were subcutaneously implanted to Balb/c nude mice (6 mice per group), and ribociclib or ribociclib HAP was orally administered (75 mg/kg, twice/week) to examine the synergistic effect with radiotherapy (1 Gy, on the day after drug administration, twice/week). The results are illustrated in a lower panel of FIG. 11.

[14] = test system: human breast cancer cells (MCF7); test: MCF7 subcutaneous implant in mice, doxorubicin or its HAP with radiotherapy; format: in vivo, Balb/c nude mice; settings: i.p. 4 or 16 mg/kg plus 0.5 Gy
Procedure: Balb/c nude mice (6 mice or more per group) were subcutaneously implanted with […] sustained-release pellets (produced by Innovative Research of America) and human breast cancer cells (MCF7), and intraperitoneally administered with doxorubicin (4 mg/kg. Day 0 and 2) or doxorubicin HAP 4 mg/kg, or 16 mg/kg, Day 0, 2, 7 and 9) to examine the synergistic effect with radiotherapy (0.5 Gy, Day 1, 3, 8 and 10). The results are shown in a lower panel of FIG. 16.

[15] = test system: hypoxic cells; settings: compared to typical radiotherapy alone; cited from earlier work
[16] = vs gemcitabine-administered group
[17] = with radiotherapy, radiation dose at which the parent compound causes side effects such as weight loss
[18] = compared with niraparib-administered group

O=C(CCn1ccnc1[N+](=O)[O-])Nc1ccn([C@@H]2O[C@H](CO)C(O)C2(F)F)c(=O)n1 (stereo in doubt) [gemcitabine HAP]
body weight [1, 16]: no decrease in body weight
survival rate [1, 16]: improved survival rate
tumor growth inhibitory effect [1]: tumor growth inhibitory effect was enhanced
tumor growth inhibitory effect ([2]; FIG. 13): effect was higher than that of gemcitabine
tumor growth inhibitory effect ([2]; FIG. 13, listed as gemcitabine-HAP): tumor growth inhibitory effect was enhanced
tumor growth inhibitory effect [3]: tumor growth inhibitory effect was enhanced
body weight [4, 16]: did not show a decrease in body weight
tumor growth inhibitory effect [4]: tumor growth inhibitory effect was enhanced
anticancer effects ([5]; radiation and drug dose at which the parent shows no side effect, vs radiation alone, parent alone, parent plus radiotherapy): significantly superior anticancer effects
therapeutic effect [5, 17]: almost equivalent to that of the parent compound
weight loss [5, 17]: not resulting in a significant weight loss

NC(=O)c1cccc2cn(-c3ccc(C4CCCN(C(=O)CCn5ccnc5[N+](=O)[O-])C4)cc3)nc12 (centres unmarked) [Compound 3]
cytotoxicity (cell viability) [6]: cytotoxicity is recovered at the low oxygen concentration
PARP activity (PARylated proteins) [7]: PARP activity is specifically inhibited under the low oxygen environment
body weight [8, 18]: no decrease in body weight
survival rate [8, 18]: improved survival rate
tumor growth inhibitory effect [8]: tumor growth inhibitory effect is enhanced

CC(C)(C)c1nc(-c2cccc(NS(=O)(=O)c3c(F)cccc3F)c2F)c(-c2ccnc(NC(=O)CCn3ccnc3[N+](=O)[O-])n2)s1 [Compound 9]
cytotoxicity (cell viability) [9]: cytotoxicity is recovered at the low oxygen concentration

CCCS(=O)(=O)Nc1ccc(F)c(C(=O)c2cn(C(=O)CCn3ccnc3[N+](=O)[O-])c3ncc(-c4ccc(Cl)cc4)cc23)c1F [Compound 11]
cytotoxicity (cell viability) [9]: cytotoxicity is recovered at the low oxygen concentration

O=C(CCn1ccnc1[N+](=O)[O-])Nc1ccccc1NC(=O)c1ccc(CNC(=O)OCc2cccnc2)cc1 [Compound 13]
cytotoxicity (cell viability) [10]: cytotoxicity is recovered at the low oxygen concentration

O=C(c1ccc(F)c(F)c1Nc1ccc(I)cc1F)N1CC(O)([C@@H]2CCCCN2C(=O)CCn2ccnc2[N+](=O)[O-])C1 [Compound 15]
cytotoxicity (cell viability) [9]: cytotoxicity is recovered at the low oxygen concentration

CC(=O)c1c(C)c2cnc(Nc3ccc(N4CCN(C(=O)CCn5ccnc5[N+](=O)[O-])CC4)cn3)nc2n(C2CCCC2)c1=O [Compound 17]
cytotoxicity (cell viability) [11]: cytotoxicity is recovered at the low oxygen concentration
tumor growth inhibitory effect [12]: tumor growth inhibitory effect was enhanced when radiation was used in combination

CN(C)C(=O)c1cc2cnc(Nc3ccc(N4CCN(C(=O)CCn5ccnc5[N+](=O)[O-])CC4)cn3)nc2n1C1CCCC1 [Compound 19]
cytotoxicity (cell viability) [11]: cytotoxicity is recovered at the low oxygen concentration
tumor growth inhibitory effect [13]: tumor growth inhibitory effect was enhanced when radiation was used in combination

COc1cccc2c1C(=O)c1c(O)c3c(c(O)c1C2=O)CC(O)(C(=O)CO)CC3OC1CC(NC(=O)CCn2ccnc2[N+](=O)[O-])C(O)C(C)O1 (centres unmarked) [doxorubicin HAP]
weight loss ([14]; vs doxorubicin-administered group): did not show the weight loss
tumor growth inhibitory effect ([14]; vs radiotherapy alone and doxorubicin plus radiation, FIG. 16): tumor growth inhibitory effect was enhanced when radiation was used in combination

O=C(Cn1ccnc1[N+](=O)[O-])NCCO [etanidazole]
survival rate [15]: no significant improvement statistically in survival rate

Nc1ccn([C@@H]2O[C@H](CO)[C@@H](O)C2(F)F)c(=O)n1 [gemcitabine, reference compound]
tumor growth inhibitory effect [1]: tumor growth inhibitory effect was enhanced
tumor growth inhibitory effect [4]: tumor growth inhibitory effect was enhanced

O=[N+]([O-])c1cncn1CCN1CCOCC1 [nimorazole]
survival rate [15]: no significant improvement statistically in survival rate

NC(=O)c1cccc2cn(-c3ccc([C@@H]4CCCNC4)cc3)nc12 [niraparib, reference compound]
tumor growth inhibitory effect [8]: tumor growth inhibitory effect is enhanced

O=[N+]([O-])c1nccn1CC(O)CN1CCCCC1 (centres unmarked) [pimonidazole]
survival rate [15]: no significant improvement statistically in survival rate
